Measured values from ChEMBL document CHEMBL1201862, “PubChem BioAssay data set” (2004).
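Where inhibition never reached the appropriate level, the endpoint shown equals the highest concentration tested. Otherwise, values were interpolated linearly from a five-concentration, 48-hour dose response in 96-well plates. The concentration for 50% growth inhibition is given as GI50.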 Active and inactive are the calls of the source. No stated cut-off is given here; in the data, active = GI50 up to about 1.1 µM and inactive = higher.

Tests used:
Test in all cases: NCI anticancer screen, dose series, 48 h
A549 = system: A549
ACHN = system: ACHN
CAKI-1 = system: CAKI-1
CCRF-CEM = system: CCRF-CEM
DU-145 = system: DU-145
HL-60 = system: HL-60
IGROV-1 = system: IGROV-1
M14 = system: M14
MDA-MB-435 = system: MDA-MB-435
NCI-H460 = system: NCI-H460
NCI/ADR-RES = system: NCI/ADR-RES
SF-295 = system: SF-295
SK-MEL-5 = system: SK-MEL-5
SN12C = system: SN12C
SNB-75 = system: SNB-75
SW-620 = system: SW-620
TK-10 = system: TK-10
UACC-257 = system: UACC-257
NCI-H226 = system: NCI-H226
OVCAR-8 = system: OVCAR-8

Measured: GI50

[O-]c1c[n+](-c2ccccc2)no1
inactive: A549 > 100 µM | ACHN > 100 µM | CAKI-1 > 100 µM | CCRF-CEM > 100 µM | DU-145 > 100 µM | HL-60 > 100 µM | IGROV-1 > 100 µM | M14 > 100 µM | MDA-MB-435 > 100 µM | NCI-H460 > 100 µM | NCI/ADR-RES > 100 µM | SF-295 > 100 µM | SK-MEL-5 > 100 µM | SN12C > 100 µM | SNB-75 > 100 µM | SW-620 > 100 µM | TK-10 > 100 µM | UACC-257 > 100 µM

Cc1ccc(O)c(/N=N\c2c(O)cc(S(=O)(=O)O)c3ccccc23)c1
inactive: A549 54.6 µM | ACHN 40.5 µM | CAKI-1 63.4 µM | CCRF-CEM 23.1 µM | HL-60 16.4 µM | IGROV-1 40.3 µM | M14 24.6 µM | MDA-MB-435 56.9 µM | NCI-H226 14.1 µM | NCI-H460 35.6 µM | NCI/ADR-RES 24.3 µM | OVCAR-8 26.2 µM | SF-295 34.6 µM | SK-MEL-5 20.7 µM | SW-620 45.2 µM | TK-10 > 100 µM | UACC-257 94.6 µM

CCC[S+]([O-])c1nc(COC(=O)NC)c(COC(=O)NC)n1C (stereo not drawn)
inactive: A549 > 100 µM | CAKI-1 > 100 µM | CCRF-CEM > 100 µM | HL-60 > 100 µM | IGROV-1 > 100 µM | M14 > 100 µM | NCI-H226 > 100 µM | NCI-H460 > 100 µM | NCI/ADR-RES > 100 µM | OVCAR-8 > 100 µM | SF-295 > 100 µM | SK-MEL-5 > 100 µM | SN12C > 100 µM | SNB-75 > 100 µM | SW-620 > 100 µM | UACC-257 > 100 µM

N#Cc1nc(C2SCCCS2)oc1N
inactive: A549 > 100 µM | ACHN > 100 µM | CAKI-1 > 100 µM | CCRF-CEM 64.3 µM | DU-145 > 100 µM | HL-60 > 100 µM | IGROV-1 > 100 µM | M14 > 100 µM | MDA-MB-435 > 100 µM | OVCAR-8 > 100 µM | SK-MEL-5 > 100 µM | SN12C > 100 µM | SW-620 > 100 µM | TK-10 > 100 µM | UACC-257 > 100 µM
active: SNB-75 < 0.01 µM

CC1OC(NCCNCCNC2OC(C)C(O)C(O)C2O)C(O)C(O)C1O (stereo not drawn)
inactive: A549 > 100 µM | ACHN > 100 µM | DU-145 > 100 µM | HL-60 > 100 µM | IGROV-1 > 100 µM | M14 > 100 µM | NCI-H226 > 100 µM | NCI-H460 > 100 µM | NCI/ADR-RES > 100 µM | OVCAR-8 > 100 µM | SF-295 > 100 µM | SK-MEL-5 > 100 µM | SN12C > 100 µM | SNB-75 > 100 µM | SW-620 > 100 µM | TK-10 > 100 µM | UACC-257 > 100 µM

CNC(=O)CNC(=O)CCC(=O)OC
inactive: A549 > 100 µM | ACHN > 100 µM | CAKI-1 > 100 µM | DU-145 > 100 µM | M14 > 100 µM | MDA-MB-435 > 100 µM | NCI-H460 > 100 µM | NCI/ADR-RES > 100 µM | OVCAR-8 > 100 µM | SF-295 > 100 µM | SK-MEL-5 > 100 µM | SN12C > 100 µM | SW-620 > 100 µM | TK-10 > 100 µM
